Reference: PubChem BioAssay AID1963849 (Molecular Pharmacology Branch, DTP, NCI, 2024)

Test system: 299254-011-R-J1-PDC complex spheroid viability
Experiment: Anticancer human tumor 299254-011-R-J1-PDC patient-derived melanoma cell line growth inhibition [POLQ]
Conditions: for IC50: curve of first compound; for viability, T/C: stronger effect = lower value
Method in brief: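 PDC + HUVEC + MSC complex spheroids; POLQ inhibitors ± partner drugs; top conc. at/near clinical Cmax, else 10 microM (SN-38 1 microM), half-log dilutions; 37 degrees C, 5% CO2.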

[1] = second compound 0.0316 µM, first compound 0.00316 µM
[2] = second compound 0.0316 µM, first compound 0.01 µM
[3] = second compound 0.0316 µM, first compound 0.0316 µM
[4] = second compound 0.0316 µM, first compound 0.1 µM
[5] = second compound 0.1 µM, first compound 0.00316 µM
[6] = second compound 0.1 µM, first compound 0.01 µM
[7] = second compound 0.1 µM, first compound 0.0316 µM
[8] = second compound 0.1 µM, first compound 0.1 µM
[9] = second compound 0.316 µM, first compound 0.00316 µM
[10] = second compound 0.316 µM, first compound 0.01 µM
[11] = second compound 0.316 µM, first compound 0.0316 µM
[12] = second compound 0.316 µM, first compound 0.1 µM
[13] = second compound 1 µM, first compound 0.00316 µM
[14] = second compound 1 µM, first compound 0.01 µM
[15] = second compound 1 µM, first compound 0.0316 µM
[16] = second compound 1 µM, first compound 0.1 µM
[17] = second compound 3.16 µM, first compound 0.00316 µM
[18] = second compound 3.16 µM, first compound 0.01 µM
[19] = second compound 3.16 µM, first compound 0.0316 µM
[20] = second compound 3.16 µM, first compound 0.1 µM
[21] = second compound 10 µM, first compound 0.00316 µM
[22] = second compound 10 µM, first compound 0.01 µM
[23] = second compound 10 µM, first compound 0.0316 µM
[24] = second compound 10 µM, first compound 0.1 µM
[25] = second compound 0.0316 µM, first compound 0.316 µM
[26] = second compound 0.0316 µM, first compound 1 µM
[27] = second compound 0.1 µM, first compound 0.316 µM
[28] = second compound 0.1 µM, first compound 1 µM
[29] = second compound 0.316 µM, first compound 0.316 µM
[30] = second compound 0.316 µM, first compound 1 µM
[31] = second compound 1 µM, first compound 0.316 µM
[32] = second compound 1 µM, first compound 1 µM
[33] = second compound 3.16 µM, first compound 0.316 µM
[34] = second compound 3.16 µM, first compound 1 µM
[35] = second compound 10 µM, first compound 0.316 µM
[36] = second compound 10 µM, first compound 1 µM
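Note: spheroids exposed to drugs for one week before measurement.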
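Throughout, for viability, T/C: percent viability relative to DMSO vehicle control taken as 100%.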

Compound: Cn1ncnc1[C@H]1c2n[nH]c(=O)c3cc(F)cc(c23)N[C@@H]1c1ccc(F)cc1 + COC1C(OC(N)=O)C(O)C(Oc2ccc3c(O)c(NC(=O)c4ccc(O)c(CC=C(C)C)c4)c(=O)oc3c2C)OC1(C)C
- IC50 (second compound 0.0316 µM): > 100 nM
- IC50 (second compound 0.1 µM): > 100 nM
- IC50 (second compound 0.316 µM): > 100 nM
- IC50 (second compound 1 µM): > 100 nM
- IC50 (second compound 3.16 µM): > 100 nM
- IC50 (second compound 10 µM): > 100 nM
- viability, T/C (second compound 0.0316 µM, first compound 0.000316 µM): 106%
- viability, T/C (second compound 0.0316 µM, first compound 0.001 µM): 84.4%
- viability, T/C [1]: 101%
- viability, T/C [2]: 98.8%
- viability, T/C [3]: 97%
- viability, T/C [4]: 98.1%
- viability, T/C (second compound 0.1 µM, first compound 0.000316 µM): 101%
- viability, T/C (second compound 0.1 µM, first compound 0.001 µM): 91.3%
- viability, T/C [5]: 105%
- viability, T/C [6]: 90.9%
- viability, T/C [7]: 106%
- viability, T/C [8]: 87.6%
- viability, T/C (second compound 0.316 µM, first compound 0.000316 µM): 89.4%
- viability, T/C (second compound 0.316 µM, first compound 0.001 µM): 94.6%
- viability, T/C [9]: 101%
- viability, T/C [10]: 92%
- viability, T/C [11]: 107%
- viability, T/C [12]: 96.2%
- viability, T/C (second compound 1 µM, first compound 0.000316 µM): 105%
- viability, T/C (second compound 1 µM, first compound 0.001 µM): 111%
- viability, T/C [13]: 102%
- viability, T/C [14]: 118%
- viability, T/C [15]: 96.5%
- viability, T/C [16]: 97.4%
- viability, T/C (second compound 3.16 µM, first compound 0.000316 µM): 99.7%
- viability, T/C (second compound 3.16 µM, first compound 0.001 µM): 103%
- viability, T/C [17]: 98.9%
- viability, T/C [18]: 93.2%
- viability, T/C [19]: 103%
- viability, T/C [20]: 100%
- viability, T/C (second compound 10 µM, first compound 0.000316 µM): 106%
- viability, T/C (second compound 10 µM, first compound 0.001 µM): 105%
- viability, T/C [21]: 115%
- viability, T/C [22]: 112%
- viability, T/C [23]: 119%
- viability, T/C [24]: 99.6%

Compound: CCc1c2c(nc3ccc(O)cc13)-c1cc3c(c(=O)n1C2)COC(=O)[C@]3(O)CC + Cc1cccc(N(C)C(=O)C2C(O)CCN2c2nc(C)cc(C(F)(F)F)c2C#N)c1
- IC50 (second compound 0.0316 µM): > 1000 nM
- IC50 (second compound 0.1 µM): > 1000 nM
- IC50 (second compound 0.316 µM): > 1000 nM
- IC50 (second compound 1 µM): > 1000 nM
- IC50 (second compound 3.16 µM): > 1000 nM
- IC50 (second compound 10 µM): > 1000 nM
- viability, T/C [1]: 95.9%
- viability, T/C [2]: 79.2%
- viability, T/C [3]: 72.9%
- viability, T/C [4]: 67.8%
- viability, T/C [25]: 62.5%
- viability, T/C [26]: 53.7%
- viability, T/C [5]: 92.8%
- viability, T/C [6]: 95.7%
- viability, T/C [7]: 65.3%
- viability, T/C [8]: 67.6%
- viability, T/C [27]: 72.8%
- viability, T/C [28]: 56.4%
- viability, T/C [9]: 104%
- viability, T/C [10]: 86.3%
- viability, T/C [11]: 75.3%
- viability, T/C [12]: 76.2%
- viability, T/C [29]: 56.7%
- viability, T/C [30]: 53%
- viability, T/C [13]: 111%
- viability, T/C [14]: 88.5%
- viability, T/C [15]: 75.1%
- viability, T/C [16]: 64.7%
- viability, T/C [31]: 68.6%
- viability, T/C [32]: 49.6%
- viability, T/C [17]: 112%
- viability, T/C [18]: 79%
- viability, T/C [19]: 72.1%
- viability, T/C [20]: 64.8%
- viability, T/C [33]: 71.6%
- viability, T/C [34]: 60%
- viability, T/C [21]: 88.6%
- viability, T/C [22]: 69.3%
- viability, T/C [23]: 57.9%
- viability, T/C [24]: 81.5%
- viability, T/C [35]: 60.1%
- viability, T/C [36]: 49.7%

Compound: CC1COCCN1c1cc(-c2ccnn2C)c2ccnc(-c3ccn[nH]3)c2n1 (stereo unspecified) + Cc1cccc(N(C)C(=O)C2C(O)CCN2c2nc(C)cc(C(F)(F)F)c2C#N)c1
- IC50 (second compound 0.0316 µM): 246 nM
- IC50 (second compound 0.1 µM): 217 nM
- IC50 (second compound 0.316 µM): 297 nM
- IC50 (second compound 1 µM): 221 nM
- IC50 (second compound 3.16 µM): 158 nM
- IC50 (second compound 10 µM): 153 nM
- viability, T/C [3]: 95.1%
- viability, T/C [4]: 73.4%
- viability, T/C [25]: 42.1%
- viability, T/C [26]: 31.5%
- viability, T/C (second compound 0.0316 µM, first compound 3.16 µM): 27.3%
- viability, T/C (second compound 0.0316 µM, first compound 10 µM): 22.5%
- viability, T/C [7]: 77.4%
- viability, T/C [8]: 77.2%
- viability, T/C [27]: 36.9%
- viability, T/C [28]: 30.4%
- viability, T/C (second compound 0.1 µM, first compound 3.16 µM): 20.2%
- viability, T/C (second compound 0.1 µM, first compound 10 µM): 19%
- viability, T/C [11]: 104%
- viability, T/C [12]: 73.5%
- viability, T/C [29]: 48.6%
- viability, T/C [30]: 30.8%
- viability, T/C (second compound 0.316 µM, first compound 3.16 µM): 23.6%
- viability, T/C (second compound 0.316 µM, first compound 10 µM): 14.6%
- viability, T/C [15]: 111%
- viability, T/C [16]: 73.1%
- viability, T/C [31]: 38.2%
- viability, T/C [32]: 28.2%
- viability, T/C (second compound 1 µM, first compound 3.16 µM): 22.1%
- viability, T/C (second compound 1 µM, first compound 10 µM): 19%
- viability, T/C [19]: 82.8%
- viability, T/C [20]: 59.1%
- viability, T/C [33]: 36.5%
- viability, T/C [34]: 24.6%
- viability, T/C (second compound 3.16 µM, first compound 3.16 µM): 24.7%
- viability, T/C (second compound 3.16 µM, first compound 10 µM): 20.1%
- viability, T/C [23]: 76.4%
- viability, T/C [24]: 59.1%
- viability, T/C [35]: 34%
- viability, T/C [36]: 29%
- viability, T/C (second compound 10 µM, first compound 3.16 µM): 20.7%
- viability, T/C (second compound 10 µM, first compound 10 µM): 19.4%
